Results reported in ChEMBL document CHEMBL4507284, “Data for DCP probe BI-1230” (2021).

Experiments:
[1] = target: Activin receptor type-1-like (Homo sapiens) (UniProt P37023); conditions: Compound concentration 1000.0 nM
[2] = target: RAC-beta serine/threonine-protein kinase (Homo sapiens) (UniProt P31751); conditions: Compound concentration 1000.0 nM
[3] = target: Protein-tyrosine kinase 6 (Homo sapiens) (UniProt Q13882); conditions: Compound concentration 1000.0 nM
[4] = target: Mitotic checkpoint serine/threonine-protein kinase BUB1 (Homo sapiens) (UniProt O43683); conditions: Compound concentration 1000.0 nM
Chain of Mitotic checkpoint serine/threonine-protein kinase BUB1 (Homo sapiens) (O43683 whole entry, looked up): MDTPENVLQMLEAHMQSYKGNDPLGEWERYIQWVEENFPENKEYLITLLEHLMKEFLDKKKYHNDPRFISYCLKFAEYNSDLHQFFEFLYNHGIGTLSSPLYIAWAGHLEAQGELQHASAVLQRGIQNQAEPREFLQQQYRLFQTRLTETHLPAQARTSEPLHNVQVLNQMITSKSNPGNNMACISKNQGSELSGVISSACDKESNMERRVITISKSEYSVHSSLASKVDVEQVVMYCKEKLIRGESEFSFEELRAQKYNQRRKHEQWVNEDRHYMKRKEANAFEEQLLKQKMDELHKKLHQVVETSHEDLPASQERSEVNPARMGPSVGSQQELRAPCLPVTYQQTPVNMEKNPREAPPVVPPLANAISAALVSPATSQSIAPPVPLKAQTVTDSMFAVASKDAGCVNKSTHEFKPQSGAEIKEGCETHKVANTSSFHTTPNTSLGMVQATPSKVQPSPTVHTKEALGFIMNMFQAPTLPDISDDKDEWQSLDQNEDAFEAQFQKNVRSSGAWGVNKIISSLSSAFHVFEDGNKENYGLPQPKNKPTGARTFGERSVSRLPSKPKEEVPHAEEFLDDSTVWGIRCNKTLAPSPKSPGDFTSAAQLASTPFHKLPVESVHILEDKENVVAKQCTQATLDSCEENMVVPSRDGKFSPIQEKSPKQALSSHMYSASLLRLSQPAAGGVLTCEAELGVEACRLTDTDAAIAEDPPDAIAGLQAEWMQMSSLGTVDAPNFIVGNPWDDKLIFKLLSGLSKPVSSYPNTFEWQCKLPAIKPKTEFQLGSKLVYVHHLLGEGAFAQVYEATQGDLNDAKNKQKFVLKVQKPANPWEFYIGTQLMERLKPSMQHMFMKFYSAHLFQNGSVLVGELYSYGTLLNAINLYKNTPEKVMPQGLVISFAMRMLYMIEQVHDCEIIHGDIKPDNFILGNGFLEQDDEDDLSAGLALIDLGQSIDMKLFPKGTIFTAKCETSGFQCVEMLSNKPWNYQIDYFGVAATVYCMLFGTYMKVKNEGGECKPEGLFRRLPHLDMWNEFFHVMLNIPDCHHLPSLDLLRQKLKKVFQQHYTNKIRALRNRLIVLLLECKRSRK

[5] = target: Cyclin-dependent kinase 19 (Homo sapiens) (UniProt Q9BWU1); conditions: Compound concentration 1000.0 nM
[6] = target: Cyclin-dependent kinase 4 (Homo sapiens) (UniProt P11802); conditions: Compound concentration 1000.0 nM
[7] = target: Cyclin-dependent kinase-like 5 (Homo sapiens) (UniProt O76039); conditions: Compound concentration 1000.0 nM
[8] = target: Epithelial discoidin domain-containing receptor 1 (Homo sapiens) (UniProt Q08345); conditions: Compound concentration 1000.0 nM
[9] = target: Discoidin domain-containing receptor 2 (Homo sapiens) (UniProt Q16832); conditions: Compound concentration 1000.0 nM
Chain of Discoidin domain-containing receptor 2 (Homo sapiens) (Q16832 whole entry, the tested form may be a part): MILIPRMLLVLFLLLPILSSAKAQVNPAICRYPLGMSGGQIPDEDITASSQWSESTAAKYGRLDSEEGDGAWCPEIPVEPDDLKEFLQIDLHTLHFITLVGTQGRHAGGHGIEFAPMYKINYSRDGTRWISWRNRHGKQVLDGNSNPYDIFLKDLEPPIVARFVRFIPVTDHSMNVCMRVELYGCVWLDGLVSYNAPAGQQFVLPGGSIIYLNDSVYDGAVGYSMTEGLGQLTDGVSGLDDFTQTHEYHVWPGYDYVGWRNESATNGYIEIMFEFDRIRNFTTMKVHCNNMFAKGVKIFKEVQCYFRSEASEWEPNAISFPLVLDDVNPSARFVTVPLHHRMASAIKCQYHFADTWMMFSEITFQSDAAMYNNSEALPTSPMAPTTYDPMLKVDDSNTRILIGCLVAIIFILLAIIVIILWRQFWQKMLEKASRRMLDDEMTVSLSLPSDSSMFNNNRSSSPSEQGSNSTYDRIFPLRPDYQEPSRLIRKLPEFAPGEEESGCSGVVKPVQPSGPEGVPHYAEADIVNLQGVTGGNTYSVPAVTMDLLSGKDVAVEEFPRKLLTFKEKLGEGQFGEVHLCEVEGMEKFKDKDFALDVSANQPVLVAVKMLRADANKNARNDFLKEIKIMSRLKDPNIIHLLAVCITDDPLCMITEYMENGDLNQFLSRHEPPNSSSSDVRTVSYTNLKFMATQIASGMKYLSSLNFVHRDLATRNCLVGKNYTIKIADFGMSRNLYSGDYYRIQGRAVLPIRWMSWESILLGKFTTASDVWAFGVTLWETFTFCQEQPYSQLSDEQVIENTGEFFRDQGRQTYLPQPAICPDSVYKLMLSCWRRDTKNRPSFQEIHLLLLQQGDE

[10] = target: Mitogen-activated protein kinase kinase kinase 12 (Homo sapiens) (UniProt Q12852); conditions: Compound concentration 1000.0 nM
[11] = target: Dual specificity tyrosine-phosphorylation-regulated kinase 1A (Homo sapiens) (UniProt Q13627); conditions: Compound concentration 1000.0 nM
[12] = target: Dual specificity tyrosine-phosphorylation-regulated kinase 2 (Homo sapiens) (UniProt Q92630); conditions: Compound concentration 1000.0 nM
[13] = tested on: Epidermal growth factor receptor (Homo sapiens), P00533 [L858R]; conditions: Compound concentration 1000.0 nM
[14] = target: Receptor tyrosine-protein kinase erbB-3 (Homo sapiens) (UniProt P21860); conditions: Compound concentration 1000.0 nM
[15] = target: Focal adhesion kinase 1 (Homo sapiens) (UniProt Q05397); conditions: Compound concentration 1000.0 nM
[16] = target: Tyrosine-protein kinase Fes/Fps (Homo sapiens) (UniProt P07332); conditions: Compound concentration 1000.0 nM
[17] = target: Fibroblast growth factor receptor 2 (Homo sapiens) (UniProt P21802); conditions: Compound concentration 1000.0 nM
[18] = target: Tyrosine-protein kinase Fgr (Homo sapiens) (UniProt P09769); conditions: Compound concentration 1000.0 nM
[19] = tested on: Receptor-type tyrosine-protein kinase FLT3 (Homo sapiens), P36888 [D835H]; conditions: Compound concentration 1000.0 nM
[20] = target: Rhodopsin kinase GRK1 (Homo sapiens) (UniProt Q15835); conditions: Compound concentration 1000.0 nM
[21] = target: Homeodomain-interacting protein kinase 4 (Homo sapiens) (UniProt Q8NE63); conditions: Compound concentration 1000.0 nM
[22] = target: Mitogen-activated protein kinase kinase kinase kinase 1 (Homo sapiens) (UniProt Q92918); conditions: Compound concentration 1000.0 nM
[23] = target: Mitogen-activated protein kinase 9 (Homo sapiens) (UniProt P45984); conditions: Compound concentration 1000.0 nM
[24] = target: Serine/threonine-protein kinase STK11 (Homo sapiens) (UniProt Q15831); conditions: Compound concentration 1000.0 nM
Chain of Serine/threonine-protein kinase STK11 (Homo sapiens) (Q15831 whole entry): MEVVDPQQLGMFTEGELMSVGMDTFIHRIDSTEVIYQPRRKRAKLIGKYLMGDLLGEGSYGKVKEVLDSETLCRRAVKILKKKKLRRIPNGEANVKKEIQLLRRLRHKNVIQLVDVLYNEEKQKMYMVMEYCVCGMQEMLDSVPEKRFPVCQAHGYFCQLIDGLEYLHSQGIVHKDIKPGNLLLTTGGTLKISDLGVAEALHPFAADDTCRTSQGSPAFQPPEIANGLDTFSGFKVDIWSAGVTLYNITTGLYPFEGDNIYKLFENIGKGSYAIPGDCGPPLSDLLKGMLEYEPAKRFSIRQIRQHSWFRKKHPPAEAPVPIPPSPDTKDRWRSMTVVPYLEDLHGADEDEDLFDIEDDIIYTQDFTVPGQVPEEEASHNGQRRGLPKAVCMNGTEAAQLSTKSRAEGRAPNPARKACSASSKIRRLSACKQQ

[25] = tested on: Leucine-rich repeat serine/threonine-protein kinase 2 (Homo sapiens), Q5S007 [G2019S]; conditions: Compound concentration 1000.0 nM
[26] = target: Tyrosine-protein kinase Lyn (Homo sapiens) (UniProt P07948); conditions: Compound concentration 1000.0 nM
Chain of Tyrosine-protein kinase Lyn (Homo sapiens) (P07948 2-512 limits assumed): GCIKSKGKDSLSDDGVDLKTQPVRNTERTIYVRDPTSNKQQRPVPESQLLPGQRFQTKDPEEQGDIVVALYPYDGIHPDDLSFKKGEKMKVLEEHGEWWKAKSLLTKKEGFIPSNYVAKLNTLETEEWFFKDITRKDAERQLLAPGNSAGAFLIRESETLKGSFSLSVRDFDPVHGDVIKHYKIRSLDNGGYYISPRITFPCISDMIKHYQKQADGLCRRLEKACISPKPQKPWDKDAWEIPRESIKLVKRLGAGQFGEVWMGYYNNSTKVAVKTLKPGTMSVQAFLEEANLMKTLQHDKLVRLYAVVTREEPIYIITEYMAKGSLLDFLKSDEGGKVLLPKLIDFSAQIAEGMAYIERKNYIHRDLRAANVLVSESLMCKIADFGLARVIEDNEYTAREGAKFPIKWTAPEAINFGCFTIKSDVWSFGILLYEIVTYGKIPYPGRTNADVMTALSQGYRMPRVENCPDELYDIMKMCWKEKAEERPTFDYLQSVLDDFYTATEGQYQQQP

[27] = target: MAP/microtubule affinity-regulating kinase 4 (Homo sapiens) (UniProt Q96L34); conditions: Compound concentration 1000.0 nM
[28] = target: Hepatocyte growth factor receptor (Homo sapiens) (UniProt P08581); conditions: Compound concentration 1000.0 nM
[29] = target: Mitogen-activated protein kinase kinase kinase 10 (Homo sapiens) (UniProt Q02779); conditions: Compound concentration 1000.0 nM
[30] = target: Serine/threonine-protein kinase 26 (Homo sapiens) (UniProt Q9P289); conditions: Compound concentration 1000.0 nM
[31] = target: Serine/threonine-protein kinase 38 (Homo sapiens) (UniProt Q15208); conditions: Compound concentration 1000.0 nM
[32] = target: Serine/threonine-protein kinase PAK 6 (Homo sapiens) (UniProt Q9NQU5); conditions: Compound concentration 1000.0 nM
[33] = target: Cyclin-dependent kinase 15 (Homo sapiens) (UniProt Q96Q40); conditions: Compound concentration 1000.0 nM
Chain of Cyclin-dependent kinase 15 (Homo sapiens) (Q96Q40 whole entry): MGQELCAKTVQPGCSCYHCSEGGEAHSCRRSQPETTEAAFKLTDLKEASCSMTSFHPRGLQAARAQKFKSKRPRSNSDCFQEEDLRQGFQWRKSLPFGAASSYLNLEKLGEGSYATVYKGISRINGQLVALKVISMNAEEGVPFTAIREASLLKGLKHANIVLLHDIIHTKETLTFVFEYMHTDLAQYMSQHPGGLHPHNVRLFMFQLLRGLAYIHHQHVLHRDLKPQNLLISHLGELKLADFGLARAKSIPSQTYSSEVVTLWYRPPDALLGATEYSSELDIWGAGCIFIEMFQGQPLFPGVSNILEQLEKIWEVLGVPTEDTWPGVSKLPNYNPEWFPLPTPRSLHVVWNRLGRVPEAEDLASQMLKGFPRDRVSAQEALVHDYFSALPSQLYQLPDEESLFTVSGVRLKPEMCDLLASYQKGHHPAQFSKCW

[34] = target: Phosphatidylinositol 5-phosphate 4-kinase type-2 beta (Homo sapiens) (UniProt P78356); conditions: Compound concentration 1000.0 nM
[35] = target: Protein kinase C iota type (Homo sapiens) (UniProt P41743); conditions: Compound concentration 1000.0 nM
[36] = target: Serine/threonine-protein kinase SIK3 (Homo sapiens) (UniProt Q9Y2K2); conditions: Compound concentration 1000.0 nM
[37] = target: Ribosomal protein S6 kinase alpha-3 (Homo sapiens) (UniProt P51812); conditions: Compound concentration 1000.0 nM
[38] = target: Ribosomal protein S6 kinase alpha-6 (Homo sapiens) (UniProt Q9UK32); conditions: Compound concentration 1000.0 nM
[39] = target: SRSF protein kinase 3 (Homo sapiens) (UniProt Q9UPE1); conditions: Compound concentration 1000.0 nM
[40] = target: Serine/threonine-protein kinase 35 (Homo sapiens) (UniProt Q8TDR2); conditions: Compound concentration 1000.0 nM
[41] = target: Serine/threonine-protein kinase TAO1 (Homo sapiens) (UniProt Q7L7X3); conditions: Compound concentration 1000.0 nM
[42] = target: Serine/threonine-protein kinase tousled-like 1 (Homo sapiens) (UniProt Q9UKI8); conditions: Compound concentration 1000.0 nM
[43] = target: Serine/threonine-protein kinase 25 (Homo sapiens) (UniProt O00506); conditions: Compound concentration 1000.0 nM
Chain of Serine/threonine-protein kinase 25 (Homo sapiens) (O00506 whole entry, looked up): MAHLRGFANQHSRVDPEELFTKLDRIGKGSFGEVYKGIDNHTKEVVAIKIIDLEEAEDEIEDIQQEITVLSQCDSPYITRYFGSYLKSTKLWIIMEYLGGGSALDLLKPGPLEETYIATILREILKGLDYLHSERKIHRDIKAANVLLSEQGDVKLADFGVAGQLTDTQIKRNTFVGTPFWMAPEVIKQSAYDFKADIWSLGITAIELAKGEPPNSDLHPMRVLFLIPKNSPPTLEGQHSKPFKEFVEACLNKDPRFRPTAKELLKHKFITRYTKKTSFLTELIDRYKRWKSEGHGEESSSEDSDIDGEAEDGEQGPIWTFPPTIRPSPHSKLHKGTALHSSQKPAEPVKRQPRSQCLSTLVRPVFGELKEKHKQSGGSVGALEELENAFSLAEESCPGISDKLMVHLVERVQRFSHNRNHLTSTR

[44] = target: 5-hydroxytryptamine receptor 1B (Homo sapiens) (UniProt P28222); conditions: Compound concentration 10.0 uM
[45] = target: Muscarinic acetylcholine receptor M1 (Homo sapiens) (UniProt P11229); conditions: Compound concentration 10.0 uM
Chain of Muscarinic acetylcholine receptor M1 (Homo sapiens) (P11229 whole entry): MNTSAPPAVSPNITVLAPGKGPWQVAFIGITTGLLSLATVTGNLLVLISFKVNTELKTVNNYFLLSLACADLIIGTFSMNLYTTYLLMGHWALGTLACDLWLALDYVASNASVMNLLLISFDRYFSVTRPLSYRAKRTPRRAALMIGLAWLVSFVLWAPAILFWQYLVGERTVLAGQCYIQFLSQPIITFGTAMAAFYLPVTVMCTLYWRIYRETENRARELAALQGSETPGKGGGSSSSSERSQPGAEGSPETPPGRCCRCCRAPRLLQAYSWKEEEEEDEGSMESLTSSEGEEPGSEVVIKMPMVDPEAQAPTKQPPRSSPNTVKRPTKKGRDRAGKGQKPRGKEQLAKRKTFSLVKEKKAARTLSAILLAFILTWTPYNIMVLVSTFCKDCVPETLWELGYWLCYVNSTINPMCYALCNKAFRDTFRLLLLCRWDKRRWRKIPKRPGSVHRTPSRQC

[46] = target: Sigma intracellular receptor 2 (Homo sapiens) (UniProt Q5BJF2); conditions: Compound concentration 10.0 uM
Chain of Sigma intracellular receptor 2 (Homo sapiens) (Q5BJF2 whole entry): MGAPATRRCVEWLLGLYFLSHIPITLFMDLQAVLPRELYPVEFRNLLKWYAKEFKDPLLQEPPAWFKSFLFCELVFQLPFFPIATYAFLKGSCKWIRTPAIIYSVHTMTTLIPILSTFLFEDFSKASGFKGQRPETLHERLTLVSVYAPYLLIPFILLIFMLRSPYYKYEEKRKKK

Chain of Protein-tyrosine kinase 6 (Homo sapiens) (Q13882 whole entry, looked up): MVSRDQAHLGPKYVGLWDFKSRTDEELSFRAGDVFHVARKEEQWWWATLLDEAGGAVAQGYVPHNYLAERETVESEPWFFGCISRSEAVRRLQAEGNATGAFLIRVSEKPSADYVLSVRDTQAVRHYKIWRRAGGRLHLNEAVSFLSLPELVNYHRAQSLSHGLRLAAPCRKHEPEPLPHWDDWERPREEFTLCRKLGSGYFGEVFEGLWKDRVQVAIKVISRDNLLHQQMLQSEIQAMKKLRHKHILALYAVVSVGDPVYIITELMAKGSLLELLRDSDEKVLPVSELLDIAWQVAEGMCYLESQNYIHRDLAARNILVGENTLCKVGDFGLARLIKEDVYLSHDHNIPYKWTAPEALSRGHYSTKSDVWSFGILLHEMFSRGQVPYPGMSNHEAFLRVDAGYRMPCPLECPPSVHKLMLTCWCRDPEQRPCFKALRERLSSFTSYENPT

COc1ccc2c(O[C@@H]3C[C@H]4C(=O)N[C@]5(C(=O)O)CC5/C=C\CCCCC[C@H](NC(=O)OC5CCCC5)C(=O)N4C3)cc(-c3csc(NC(=O)C(C)C)n3)nc2c1C (some centres not stated) [BI 1230]
inactive: residual activity [1] 97% | residual activity [2] 89% | residual activity [3] 97% | residual activity [4] 96% | residual activity [5] 90% | residual activity [6] 88% | residual activity [7] 77% | residual activity [8] 100% | residual activity [9] 88% | residual activity [10] 92% | residual activity [11] 79% | residual activity [12] 77% | residual activity [13] 100% | residual activity [14] 88% | residual activity [15] 99% | residual activity [16] 100% | residual activity [17] 96% | residual activity [18] 100% | residual activity [19] 73% | residual activity [20] 100% | residual activity [21] 99% | residual activity [22] 100% | residual activity [23] 71% | residual activity [24] 100% | residual activity [25] 91% | residual activity [26] 94% | residual activity [27] 99% | residual activity [28] 99% | residual activity [29] 93% | residual activity [30] 95% | residual activity [31] 50% | residual activity [32] 100% | residual activity [33] 100% | residual activity [34] 100% | residual activity [35] 96% | residual activity [36] 97% | residual activity [37] 82% | residual activity [38] 100% | residual activity [39] 57% | residual activity [40] 100% | residual activity [41] 96% | residual activity [42] 100% | residual activity [43] 100% | inhibition [44] 7.71% | inhibition [45] 8.82% | inhibition [46] 28%

O=C(N[C@H]1CCCCC/C=C\C2C[C@@]2(C(=O)O)NC(=O)[C@@H]2C[C@@H](Oc3ccncc3)CN2C1=O)OC1CCCC1 (some centres not stated) [BI 1675]
inactive: residual activity [1] 84% | residual activity [2] 85% | residual activity [3] 100% | residual activity [4] 100% | residual activity [5] 91% | residual activity [6] 89% | residual activity [7] 83% | residual activity [8] 100% | residual activity [9] 100% | residual activity [10] 100% | residual activity [11] 84% | residual activity [12] 66% | residual activity [13] 96% | residual activity [14] 84% | residual activity [15] 97% | residual activity [16] 100% | residual activity [17] 79% | residual activity [18] 100% | residual activity [19] 56% | residual activity [20] 100% | residual activity [21] 100% | residual activity [22] 93% | residual activity [23] 94% | residual activity [24] 85% | residual activity [25] 86% | residual activity [26] 87% | residual activity [27] 100% | residual activity [28] 60% | residual activity [29] 100% | residual activity [30] 97% | residual activity [31] 97% | residual activity [32] 100% | residual activity [33] 100% | residual activity [34] 100% | residual activity [35] 100% | residual activity [36] 95% | residual activity [37] 89% | residual activity [38] 86% | residual activity [39] 89% | residual activity [40] 100% | residual activity [41] 100% | residual activity [42] 82% | residual activity [43] 97% | inhibition [44] -3.04% | inhibition [45] 14.1% | inhibition [46] 18.5%
